Here are results for 45 compounds from patent publication US12065445B2, “CDK2 inhibitors and methods of using the same” (Cedilla Therapeutics, Inc., priority 2021, dated 2024).

Experiment [1] has as its system Kuramochi cells labeled with mApple-H2B. Put plainly: IncuCyte Cell Proliferation Assay. The format is cell-based. The conditions noted are these: 72 h. The protocol:
IncuCyte® assay was used to measure the effect of disclosed compounds on cell proliferation. Fluorescent microscopy images of cells were taken immediately after compound treatment and 72 hours later. Image analysis software was used to obtain cell counts as a function of compound concentration. Kuramochi cells labeled with mApple-H2B were seeded on 384-well assay-ready plates. Plates were placed in an IncuCyte® (Sartorius) and scanned at 0 and 72 hours. IncuCyte® software was used to count the number of fluorescent nuclei in each well. The fold change in cell count from 0 to 72 hours in wells treated with increasing compounds concentrations (10 pts, ½ log dilution, 20 μM top concentration) was normalized to DMSO control wells. The normalized cell counts were fit with dose response curves and a […] was calculated.

Another experiment concerns Kuramochi cells. Put plainly: BrdU Cell Proliferation Assay. In kind it is cell-based. The conditions noted are these: read-out: BrdU - KURAMOCHI.1: IC50. Summed up:
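Kuramochi cells were seeded at 2,000 cells/well, adhered overnight, then treated with a 10-point, 3-fold compound dilution series for 4 days. Proliferation was measured by a 1-hour BrdU pulse, anti-BrdU peroxidase colorimetric ELISA and 450 nm absorbance. Values were background-subtracted and normalized to DMSO wells.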

Bounds are passed on as bounds.

For the compound `CNC(=O)[C@@H](NC(=O)[C@@H]1CN(C(=O)c2cnn(Cc3ccc(C(=O)O)cc3)c2)CC12CN(C(=O)[C@H]1CC1(C)C)C2)[C@@H](C)OCc1ccccc1` [I-476], in experiment [1], the IC50 (usually the concentration that gives 50% inhibition) is > 20 µM.
Same read-out and setting: next, `C[C@@H](OCC1(C(F)(F)F)CC1)[C@H](NC(=O)[C@@H]1CN(C(=O)c2cncs2)CC12CN(C(=O)[C@H]1CC1(C)C)C2)C(=O)N1CCCCC1` [I-285]: > 20 µM; `C[C@@H](OCC12CCC(CC1)OC2)[C@H](NC(=O)[C@@H]1CN(C(=O)c2cncs2)CC12CN(C(=O)[C@H]1CC1(C)C)C2)C(=O)N1CCC[C@H](COC(F)(F)F)C1` [I-460]: 0.5 to 5 µM; `CNC(=O)[C@@H](NC(=O)[C@@H]1CN(C(=O)c2cnn(Cc3ccccc3)c2)CC12CN(C(=O)[C@H]1CC1(C)C)C2)C(C)(C)OCc1ccccc1` [I-393]: 5 to 20 µM.
The same measure, in the same setting: next, `C[C@@H](OCC1CCCCC1)[C@H](NC(=O)[C@@H]1CN(C(=O)c2cnn(Cc3ccccc3)c2)CC12CN(C(=O)[C@H]1CC1(C)C)C2)C(=O)N1CCC(c2ncc[nH]2)CC1` [I-446]: 0.5 to 5 µM; `COC[C@H]1CCCN(C(=O)[C@@H](NC(=O)[C@@H]2CN(C(=O)c3cncs3)CC23CN(C(=O)[C@H]2CC2(C)C)C3)[C@@H](C)OCC2CCC3(CCC3)CC2)C1` [I-390]: ≤ 0.5 µM.
The same measure, in the same setting: next, `C[C@@H](OCC1CCC(F)(F)CC1)[C@H](NC(=O)[C@@H]1CN(C(=O)c2cncs2)CC12CN(C(=O)[C@H]1CC1(C)C)C2)C(=O)N1CCC(CO)CC1` [I-397]: 0.5 to 5 µM; `C[C@@H](OC(C)(C)C1CCCCC1)[C@H](NC(=O)[C@@H]1CN(C(=O)c2cncs2)CC12CN(C(=O)[C@H]1CC1(C)C)C2)C(=O)N1CCCCC1` [I-395]: 0.5 to 5 µM.
As for `C[C@@H](OCC12CCC(CC1)OC2)[C@H](NC(=O)[C@@H]1CN(C(=O)c2cncs2)CC12CN(C(=O)[C@H]1CC1(C)C)C2)C(=O)N1CCC[C@H](COC(F)F)C1` [I-461], the 50% inhibitory concentration (IC50) in experiment [1] is 0.5 to 5 µM.
As to `CNC(=O)[C@@H](NC(=O)[C@H]1CN(C(=O)c2cn[nH]c2)CC12CN(C(=O)[C@H]1CC1(C)C)C2)[C@@H](C)OCC1CCCCC1` [I-66B], the IC50 with Kuramochi cells is > 10 µM.
The same measure, in the same setting: next, `COC(=O)[C@H](CO)NC(=O)[C@@H]1CN(C(=O)c2cnn(Cc3ccccc3)c2)CC12CN(C(=O)[C@H]1CC1(C)C)C2` [I-209A]: > 10 µM.
As to `CNC(=O)[C@@H](NC(=O)[C@H]1CN(C(=O)c2nccs2)CC12CN(C(=O)[C@H]1CC1(C)C)C2)[C@@H](C)OCC1CCCCC1` [I-146], the IC50 in the experiment on Kuramochi cells was > 10 µM.
On the same count and under the same terms, as for `CNC(=O)[C@@H](NC(=O)[C@@H]1CN(C(=O)c2cnn(Cc3ccccc3)c2)CC12CN(C(=O)[C@H]1CC1(C)C)C2)[C@@H](C)OCC1CCCC1` [I-110A], the figure is 0.5 to 5 µM; as for `C[C@@H](OCC1CCCCC1)[C@H](NC(=O)[C@@H]1CN(C(=O)c2ccns2)CC12CN(C(=O)[C@H]1CC1(C)C)C2)C(=O)N1CCCCC1` [I-217], ≤ 0.5 µM.
On the same count and under the same terms, as for `CNC(=O)[C@@H](NC(=O)[C@@H]1CN(C(=O)c2cnn(Cc3ccccc3)c2)CC12CN(C(=O)[C@H]1CC1(C)C)C2)[C@@H](C)OCc1ccccc1O` [I-251], the figure is > 10 µM; as for `CNC(=O)[C@@H](NC(=O)[C@H]1CN(C(=O)c2cnc[nH]2)CC12CN(C(=O)[C@H]1CC1(C)C)C2)[C@@H](C)OCc1ccccc1` [I-44B], > 10 µM; as for `CC1(C)C[C@@H]1C(=O)N1CC2(CN(C(=O)c3cnn(Cc4ccccc4)c3)C[C@H]2C(=O)N2CC[C@@H](OCC3CCCCC3)C2)C1` [I-235], > 10 µM.
Same read-out and setting: as for `CNC(=O)[C@@H](NC(=O)[C@H]1CN(C(=O)c2cnn(Cc3ccccc3)c2)CC12CN(C(=O)C1CC1(C)C)C2)[C@@H](C)O` (stereo partly drawn) [I-88B], the figure is > 10 µM; as for `CNC(=O)[C@@H](NC(=O)[C@H]1CN(C(=O)c2cnn(Cc3ccccc3)c2)CC12CN(C(=O)CC(F)(F)F)C2)[C@@H](C)OCc1ccccc1` [I-87B], > 10 µM.
Turning to `CNC(=O)[C@@H](NC(=O)[C@H]1CN(C(=O)c2cnc(C(F)(F)F)s2)CC12CN(C(=O)[C@H]1CC1(C)C)C2)[C@@H](C)OCC1CCCCC1` [I-161B], in the experiment on Kuramochi cells, the IC50 is > 10 µM.
`CC1(C)C[C@@H]1C(=O)N1CC2(CN(C(=O)c3cnn(Cc4ccccc4)c3)C[C@H]2C(=O)NC2CCN(C(=O)c3ccccc3)CC2)C1` [I-61A]: the IC50 with Kuramochi cells is > 10 µM.
Still for that read-out and setting: next, `C[C@@H](OCc1ccccc1)[C@H](NC(=O)C1CN(C(=O)c2cnn(Cc3ccccc3)c2)CC12CN(C(=O)[C@H]1CC1(C)C)C2)C(=O)N1CCOCC1` (stereo partly drawn) [I-86]: > 10 µM.
Turning to `CNC(=O)[C@@H](NC(=O)[C@H]1CN(C(=O)c2scnc2C2CC2)CC12CN(C(=O)[C@H]1CC1(C)C)C2)[C@@H](C)OCC1CCCCC1` [I-185B], in the experiment with Kuramochi cells, the IC50 is > 10 µM.
The same measure, in the same setting: next, `CCC(CC)C(=O)N1CC2(CN(C(=O)c3cnn(Cc4ccccc4)c3)C[C@H]2C(=O)N[C@H](C(=O)NC)[C@@H](C)OCc2ccccc2)C1` [I-74A]: > 10 µM; `CNC(=O)[C@@H](NC(=O)[C@@H]1CN(Cc2ccncc2)CC12CN(C(=O)[C@H]1CC1(C)C)C2)[C@@H](C)OCc1ccccc1` [I-55A]: > 10 µM; `CN(C(=O)[C@H]1CCCN(C(=O)[C@@H]2CN(C(=O)c3cnn(Cc4ccccc4)c3)CC23CN(C(=O)[C@H]2CC2(C)C)C3)C1)C1CCCCC1` [I-179]: > 10 µM.
Same read-out and setting: next, `COC[C@H]1CCCN(C(=O)[C@@H](NC(=O)[C@@H]2CN(C(=O)c3cncs3)CC23CN(S(=O)(=O)C(C)(C)C)C3)[C@@H](C)OCC2CCCCC2)C1` [I-447, (S)-2-(tert-butylsulfonyl)-N-((2S,3R)-3-(cyclohexylmethoxy)-1-((S)-3-(methoxymethyl)piperidin-1-yl)-1-oxobutan-2-yl)-6-(thiazole-5-carbonyl)-2,6-diazaspiro[3.4]octane-8-carboxamide]: > 10 µM.
For `CNC(=O)[C@@H](NC(=O)[C@@H]1CN(C(=O)c2cnn(Cc3ccccc3)c2)CC12CN(C(=O)[C@H]1CC1(C)C)C2)[C@@H](C)OCC1CCC(F)(F)CC1` [I-202], in the experiment with Kuramochi cells, the concentration for half-maximal inhibition (IC50) was in the range of 0.5 to 5 µM.
Same read-out and setting: as for `CC1(C)C[C@@H]1C(=O)N1CC2(CN(C(=O)c3cnn(Cc4ccccc4)c3)C[C@H]2C(=O)NC2CCNC(=O)C2)C1` (stereo partly drawn) [I-223], the figure is > 10 µM; as for `CNC(=O)[C@@H](NC(=O)[C@@H]1CN(C(=O)c2cnn(Cc3ccccc3)c2)CC12CN(C(=O)Cc1ccccc1)C2)[C@@H](C)OCc1ccccc1` [I-25A, (S)-6-(1-benzyl-1H-pyrazole-4-carbonyl)-N-((2S,3R)-3-(benzyloxy)-1-(methylamino)-1-oxobutan-2-yl)-2-(2-phenylacetyl)-2,6-diazaspiro[3.4]octane-8-carboxamide], > 10 µM.
Same read-out and setting: next, `CNC(=O)[C@@H](NC(=O)[C@H]1CN(Cc2cn[nH]c2)CC12CN(C(=O)[C@H]1CC1(C)C)C2)[C@@H](C)OCc1ccccc1` [I-50B]: > 10 µM.
The same measure, in the same setting: as for `COC(=O)[C@@H](CO)NC(=O)[C@H]1CN(C(=O)c2cnn(Cc3ccccc3)c2)CC12CN(C(=O)[C@H]1CC1(C)C)C2` [I-187B], the figure is > 10 µM.
Consider `CNC(=O)[C@@H](NC(=O)[C@H]1CN(C(=O)c2cnn(Cc3ccccc3)c2)CC12CN(C(=O)C(C)C)C2)[C@@H](C)OCc1ccccc1` [I-54B], for which the IC50 in the experiment on Kuramochi cells was > 10 µM.
For the compound `CNC(=O)[C@@H](NC(=O)[C@@H]1CN(C(=O)c2cnn(Cc3ccccc3)c2)CC12CN(C(=O)C1(F)CC1)C2)[C@@H](C)OCc1ccccc1` [I-71A], the IC50 with Kuramochi cells is > 10 µM.
Still for that read-out and setting: next, `CNC(=O)[C@@H](NC(=O)[C@@H]1CN(C(=O)c2cnn(Cc3ccccc3)c2)CC12CN(C(=O)C1(c3ccc(C(C)(C)C)cc3)CC1)C2)[C@@H](C)OCc1ccccc1` [I-80A]: > 10 µM; `CC1(C)C[C@@H]1C(=O)N1CC2(CN(C(=O)c3cnn(Cc4ccccc4)c3)C[C@H]2C(=O)Nc2cccc(Cc3ccccc3)c2)C1` [I-75A]: 0.5 to 5 µM; `CC1(C)C[C@@H]1C(=O)N1CC2(CN(C(=O)c3cnn(Cc4ccccc4)c3)C[C@H]2C(=O)N2CCO[C@H](Cc3ccccc3)C2)C1` [I-255]: > 10 µM.
Still for that read-out and setting: next, `CNC(=O)[C@@H](NC(=O)[C@H]1CN(C(=O)c2cnn(Cc3ccccc3)c2)CC12CN(C(=O)[C@H]1CC1(C)C)C2)[C@@H](C)OCC1CCC1` [I-144B]: > 10 µM; `CNC(=O)[C@@H](NC(=O)[C@@H]1CN(C(=O)c2cnc[nH]2)CC12CN(C(=O)[C@H]1CC1(C)C)C2)[C@@H](C)OCc1ccccc1` [I-44A]: > 10 µM.
The same measure, in the same setting: next, `CC(C)O[C@H]1C[C@H](NC(=O)[C@@H]2CN(C(=O)c3cnn(Cc4ccccc4)c3)CC23CN(C(=O)[C@H]2CC2(C)C)C3)C1` [I-233]: > 10 µM.
Consider `CNC(=O)[C@@H](NC(=O)[C@H]1CN(C(=O)c2cnn(Cc3ccccc3)c2)CC12CN(C(=O)C1(C#N)CC1)C2)[C@@H](C)OCc1ccccc1` [I-73B], for which the IC50 in the experiment with Kuramochi cells is > 10 µM.
As for `CNC(=O)[C@@H](NC(=O)[C@@H]1CN(C(=O)c2cnn(Cc3ccccc3)c2)CC12CN(C(=O)[C@H]1CC1(C)C)C2)[C@@H](C)OCC1CCOCC1` [I-119A], in the experiment on Kuramochi cells, the IC50 was > 10 µM.
The same measure, in the same setting: as for `CNC(=O)[C@@H](NC(=O)[C@H]1CN(Cc2cccnc2)CC12CN(C(=O)[C@H]1CC1(C)C)C2)[C@@H](C)OCc1ccccc1` [I-49B], the figure is > 10 µM; as for `CO[C@H]1COCC[C@@H]1NC(=O)[C@H]1CN(C(=O)c2cnn(Cc3ccccc3)c2)CC12CN(C(=O)[C@H]1CC1(C)C)C2` [I-148B], > 10 µM.
Same read-out and setting: next, `CNC(=O)[C@@H](NC(=O)[C@H]1CN(C(=O)c2cncs2)CC12CN(C(=O)[C@H]1CC1(C)C)C2)[C@@H](C)OCC1CCCCC1` [I-129B]: > 10 µM.
